Key:
Assay in all cases: relative viability (nuclei count vs DMSO), 5 days (fraction); higher = more cells survive
NCI-H1755 = system: NCI-H1755
Summary of the method: (§1)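 Lung cancer cell lines in 1536-well plates were dosed by pin tool the day after seeding, either with one drug alone or with a fixed anchor-drug dose plus five library-drug doses (not always all listed) in √10 steps. After 5 days, cells were fixed and their nuclei stained in one step (final 0.05% Triton X-100, 1% formaldehyde, 1 ug/ml Hoechst), then counted on 4× images. Relative viability is the nuclei count in treated wells divided by that in vehicle wells. Values are medians of duplicate plates.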

LCLC-97TM1 = system: LCLC-97TM1
Summary of the method: as §1

NCI-H2009 = system: NCI-H2009
Summary of the method: as §1

NCI-H1975 = system: NCI-H1975
Summary of the method: as §1

NCI-H441 = system: NCI-H441
Summary of the method: as §1

NCI-H460 = system: NCI-H460
Summary of the method: as §1

NCI-H1355 = system: NCI-H1355
Summary of the method: as §1

NCI-H647 = system: NCI-H647
Summary of the method: as §1

SK-LU-1 = system: SK-LU-1
Summary of the method: as §1

PC-3 [JPC-3] = system: PC-3 [JPC-3]
Summary of the method: as §1

NCI-H1993 = system: NCI-H1993
Summary of the method: as §1

NCI-H520 = system: NCI-H520
Summary of the method: as §1

NCI-H2347 = system: NCI-H2347
Summary of the method: as §1

SW 1573 = system: SW 1573
Summary of the method: as §1

NCI-H727 = system: NCI-H727
Summary of the method: as §1

ABC-1 = system: ABC-1
Summary of the method: as §1

EMC-BAC-2 = system: EMC-BAC-2
Summary of the method: as §1

NCI-H2126 = system: NCI-H2126
Summary of the method: as §1

PC-14 = system: PC-14
Summary of the method: as §1

NCI-H1563 = system: NCI-H1563
Summary of the method: as §1

NCI-H1666 = system: NCI-H1666
Summary of the method: as §1

CCCCCCCCCCCC1=C(O)C(=O)C=C(O)C1=O [Embelin] + CC(C)C[C@H](NC(=O)[C@H](Cc1ccccc1)NC(=O)c1cnccn1)B(O)O [Bortezomib] (partner 0.002 µM)
relative viability (NCI-H1755; first compound 0.08 µM): 0.987
relative viability (NCI-H1755; first compound 0.8 µM): 1.07
relative viability (NCI-H1755; first compound 2.53 µM): 0.971
relative viability (NCI-H1755; first compound 8 µM): 0.917
relative viability (LCLC-97TM1; first compound 0.08 µM): 0.812
relative viability (LCLC-97TM1; first compound 0.8 µM): 0.774
relative viability (LCLC-97TM1; first compound 2.53 µM): 0.29
relative viability (LCLC-97TM1; first compound 8 µM): 0.907
relative viability (NCI-H2009; first compound 0.08 µM): 1.07
relative viability (NCI-H2009; first compound 0.8 µM): 1.18
relative viability (NCI-H2009; first compound 2.53 µM): 0.916
relative viability (NCI-H2009; first compound 8 µM): 0.9
relative viability (NCI-H1975; first compound 0.08 µM): 0.45
relative viability (NCI-H1975; first compound 0.8 µM): 0.432
relative viability (NCI-H1975; first compound 2.53 µM): 0.372
relative viability (NCI-H1975; first compound 8 µM): 0.367
relative viability (NCI-H441; first compound 0.08 µM): 0.448
relative viability (NCI-H441; first compound 2.53 µM): 0.251
relative viability (NCI-H441; first compound 8 µM): 0.475
relative viability (NCI-H460; first compound 0.08 µM): 0.961
relative viability (NCI-H460; first compound 0.8 µM): 1.27
relative viability (NCI-H460; first compound 2.53 µM): 1.38
relative viability (NCI-H460; first compound 8 µM): 1.19
relative viability (NCI-H1355; first compound 0.08 µM): 1.16
relative viability (NCI-H1355; first compound 0.8 µM): 1.24
relative viability (NCI-H1355; first compound 2.53 µM): 1.21
relative viability (NCI-H1355; first compound 8 µM): 1.02
relative viability (NCI-H647; first compound 0.08 µM): 1.08
relative viability (NCI-H647; first compound 0.8 µM): 1.28
relative viability (NCI-H647; first compound 2.53 µM): 1.43
relative viability (NCI-H647; first compound 8 µM): 0.929
relative viability (SK-LU-1; first compound 0.08 µM): 1.23
relative viability (SK-LU-1; first compound 0.8 µM): 1.95
relative viability (SK-LU-1; first compound 2.53 µM): 0.982
relative viability (SK-LU-1; first compound 8 µM): 0.929
relative viability (PC-3 [JPC-3]; first compound 0.08 µM): 0.831
relative viability (PC-3 [JPC-3]; first compound 0.8 µM): 0.908
relative viability (PC-3 [JPC-3]; first compound 2.53 µM): 0.927
relative viability (PC-3 [JPC-3]; first compound 8 µM): 0.806
relative viability (NCI-H1993; first compound 0.08 µM): 1.16
relative viability (NCI-H1993; first compound 0.8 µM): 1.14
relative viability (NCI-H1993; first compound 2.53 µM): 1.22
relative viability (NCI-H1993; first compound 8 µM): 1.08
relative viability (NCI-H520; first compound 0.08 µM): 0.848
relative viability (NCI-H520; first compound 0.8 µM): 0.255
relative viability (NCI-H520; first compound 2.53 µM): 0.668
relative viability (NCI-H520; first compound 8 µM): 0.511
relative viability (NCI-H2347; first compound 0.08 µM): 1.15
relative viability (NCI-H2347; first compound 0.8 µM): 1.1
relative viability (NCI-H2347; first compound 2.53 µM): 1.15
relative viability (NCI-H2347; first compound 8 µM): 1.05
relative viability (SW 1573; first compound 0.08 µM): 1.26
relative viability (SW 1573; first compound 0.8 µM): 1.29
relative viability (SW 1573; first compound 2.53 µM): 1.2
relative viability (SW 1573; first compound 8 µM): 1.27
relative viability (NCI-H727; first compound 0.08 µM): 0.813
relative viability (NCI-H727; first compound 0.8 µM): 0.997
relative viability (NCI-H727; first compound 2.53 µM): 1.02
relative viability (NCI-H727; first compound 8 µM): 0.798
relative viability (ABC-1; first compound 0.08 µM): 0.299
relative viability (ABC-1; first compound 0.8 µM): 0.371
relative viability (ABC-1; first compound 2.53 µM): 0.252
relative viability (ABC-1; first compound 8 µM): 0.257
relative viability (EMC-BAC-2; first compound 0.08 µM): 1.04
relative viability (EMC-BAC-2; first compound 0.8 µM): 1.18
relative viability (EMC-BAC-2; first compound 2.53 µM): 1.21
relative viability (EMC-BAC-2; first compound 8 µM): 1.09
relative viability (NCI-H2126; first compound 0.08 µM): 1.14
relative viability (NCI-H2126; first compound 0.8 µM): 1.11
relative viability (NCI-H2126; first compound 2.53 µM): 1.08
relative viability (NCI-H2126; first compound 8 µM): 1.19
relative viability (PC-14; first compound 0.08 µM): 0.858
relative viability (PC-14; first compound 0.8 µM): 0.899
relative viability (PC-14; first compound 2.53 µM): 0.84
relative viability (PC-14; first compound 8 µM): 0.87
relative viability (NCI-H1563; first compound 0.08 µM): 1.06
relative viability (NCI-H1563; first compound 0.8 µM): 0.953
relative viability (NCI-H1563; first compound 2.53 µM): 0.787
relative viability (NCI-H1563; first compound 8 µM): 0.753
relative viability (NCI-H1666; first compound 0.08 µM): 0.655
relative viability (NCI-H1666; first compound 0.8 µM): 1.05
relative viability (NCI-H1666; first compound 2.53 µM): 0.922
relative viability (NCI-H1666; first compound 8 µM): 0.829
